Results: US20230117034A1, “PYRAZOLOTRIAZINES” (Bayer Aktiengesellschaft, priority 2019, published 2023)

Assays:
[1] = tested on: BRCA1 mRNA expression in MDA-MB-231 cells; experiment: qRT-PCR assay: BRCA1 mRNA expression in MDA-MB-231; assay type: cell-based, human; details: Homo sapiens, MDA-MB-231, Inhibition of BRCA1 mRNA expression in MDA-MB-231 cells; median; read-out: RTqPCR-MDA-MB-231, IC50, BRCA1 (median)
Procedure, shortened: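 MDA-MB-231 cells, 200,000/well, treated 24 h after plating with continuous 24 h compound exposure. RNA extracted, 600 ng reverse-transcribed, BRCA1 measured by RT-qPCR normalized to GAPDH.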

CDK9/CycT1 = biological target: T1, CDK9/CycT1 (Homo sapiens, UniProt P50750); experiment: CDK9/CycT1 high ATP kinase assay (TR-FRET, 2 mM ATP); assay type: biochemical; details: 2 mM ATP (high ATP); median; read-out: CDK9/CyclinT1, 2 mM ATP (high ATP), IC50 (median)
T1 construct: Recombinant full-length His-tagged human CDK9 and CycT1; purchased Life Technologies PV4131; host or cells: insect cells
Procedure, shortened: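 Full-length His-tagged human CDK9/CycT1 (insect cell, ~0.5 μg/mL) preincubated 15 min at 22 °C with compound in Tris pH 8.0, MgCl2, DTT buffer before reaction with biotinylated peptide substrate at high ATP (2 mM).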

[2] = biological target: T2, CDK12 (nuclear staining in CAL-120 cells) (Homo sapiens, UniProt Q9NYV4); experiment: CDK12 nuclear protein level: immunofluorescence/high content analysis (CAL-120); assay type: cell-based; details: for DC50: CAL-120 cells, 24 h, immunofluorescence, 50% reduction of nuclear CDK12 staining intensity, median, read-out: CDK12 degradation IF, DC50- [mol/l] (median); for (IC50 CDK12 high ATP) to (Degradation DC50 CDK12) ratio: ratio of IC50 CDK12 high ATP kinase assay to DC50 CDK12 degradation (IF, CAL-120)
T2 construct: endogenous in cells; host or cells: CAL-120 human breast cancer cells (DSMZ ACC 459)
Procedure, shortened: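 CAL-120 cells were treated with compound for 24 h at 37 °C, fixed with PFA and immunostained for CDK12. Nuclear CDK12 intensity was quantified by automated image analysis and normalized to DMSO and control. DC50 is the concentration giving 50% reduction of nuclear staining.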

T1 sequence (P50750 whole entry): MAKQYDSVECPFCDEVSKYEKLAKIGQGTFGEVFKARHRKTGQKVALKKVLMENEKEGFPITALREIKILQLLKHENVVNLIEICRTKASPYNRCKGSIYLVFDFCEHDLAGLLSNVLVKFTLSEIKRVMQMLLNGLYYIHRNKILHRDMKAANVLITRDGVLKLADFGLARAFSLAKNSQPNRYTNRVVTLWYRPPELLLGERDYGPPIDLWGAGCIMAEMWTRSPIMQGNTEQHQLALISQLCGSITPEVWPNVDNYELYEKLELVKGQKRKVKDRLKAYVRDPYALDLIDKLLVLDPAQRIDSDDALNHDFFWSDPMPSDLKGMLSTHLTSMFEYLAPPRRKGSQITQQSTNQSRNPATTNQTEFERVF
T1 sequence (O60563 whole entry partner): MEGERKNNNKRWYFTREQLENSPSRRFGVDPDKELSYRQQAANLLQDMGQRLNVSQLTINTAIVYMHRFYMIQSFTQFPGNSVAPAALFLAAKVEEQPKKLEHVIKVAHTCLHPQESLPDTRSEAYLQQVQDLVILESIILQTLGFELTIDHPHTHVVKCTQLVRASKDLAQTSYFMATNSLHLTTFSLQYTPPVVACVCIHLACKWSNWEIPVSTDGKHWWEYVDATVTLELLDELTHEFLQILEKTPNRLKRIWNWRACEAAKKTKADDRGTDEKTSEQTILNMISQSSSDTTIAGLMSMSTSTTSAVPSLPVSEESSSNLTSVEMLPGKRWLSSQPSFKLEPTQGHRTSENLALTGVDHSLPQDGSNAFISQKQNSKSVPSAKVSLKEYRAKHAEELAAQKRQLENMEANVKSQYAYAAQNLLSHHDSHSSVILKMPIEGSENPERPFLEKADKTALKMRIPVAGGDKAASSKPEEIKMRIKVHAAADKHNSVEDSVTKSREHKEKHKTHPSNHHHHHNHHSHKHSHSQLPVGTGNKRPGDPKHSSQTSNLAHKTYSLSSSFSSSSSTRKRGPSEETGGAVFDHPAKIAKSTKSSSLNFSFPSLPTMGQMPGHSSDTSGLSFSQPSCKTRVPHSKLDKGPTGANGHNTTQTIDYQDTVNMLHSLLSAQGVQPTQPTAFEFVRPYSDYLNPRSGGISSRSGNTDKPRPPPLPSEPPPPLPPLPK
T2 sequence (Q9NYV4 whole entry): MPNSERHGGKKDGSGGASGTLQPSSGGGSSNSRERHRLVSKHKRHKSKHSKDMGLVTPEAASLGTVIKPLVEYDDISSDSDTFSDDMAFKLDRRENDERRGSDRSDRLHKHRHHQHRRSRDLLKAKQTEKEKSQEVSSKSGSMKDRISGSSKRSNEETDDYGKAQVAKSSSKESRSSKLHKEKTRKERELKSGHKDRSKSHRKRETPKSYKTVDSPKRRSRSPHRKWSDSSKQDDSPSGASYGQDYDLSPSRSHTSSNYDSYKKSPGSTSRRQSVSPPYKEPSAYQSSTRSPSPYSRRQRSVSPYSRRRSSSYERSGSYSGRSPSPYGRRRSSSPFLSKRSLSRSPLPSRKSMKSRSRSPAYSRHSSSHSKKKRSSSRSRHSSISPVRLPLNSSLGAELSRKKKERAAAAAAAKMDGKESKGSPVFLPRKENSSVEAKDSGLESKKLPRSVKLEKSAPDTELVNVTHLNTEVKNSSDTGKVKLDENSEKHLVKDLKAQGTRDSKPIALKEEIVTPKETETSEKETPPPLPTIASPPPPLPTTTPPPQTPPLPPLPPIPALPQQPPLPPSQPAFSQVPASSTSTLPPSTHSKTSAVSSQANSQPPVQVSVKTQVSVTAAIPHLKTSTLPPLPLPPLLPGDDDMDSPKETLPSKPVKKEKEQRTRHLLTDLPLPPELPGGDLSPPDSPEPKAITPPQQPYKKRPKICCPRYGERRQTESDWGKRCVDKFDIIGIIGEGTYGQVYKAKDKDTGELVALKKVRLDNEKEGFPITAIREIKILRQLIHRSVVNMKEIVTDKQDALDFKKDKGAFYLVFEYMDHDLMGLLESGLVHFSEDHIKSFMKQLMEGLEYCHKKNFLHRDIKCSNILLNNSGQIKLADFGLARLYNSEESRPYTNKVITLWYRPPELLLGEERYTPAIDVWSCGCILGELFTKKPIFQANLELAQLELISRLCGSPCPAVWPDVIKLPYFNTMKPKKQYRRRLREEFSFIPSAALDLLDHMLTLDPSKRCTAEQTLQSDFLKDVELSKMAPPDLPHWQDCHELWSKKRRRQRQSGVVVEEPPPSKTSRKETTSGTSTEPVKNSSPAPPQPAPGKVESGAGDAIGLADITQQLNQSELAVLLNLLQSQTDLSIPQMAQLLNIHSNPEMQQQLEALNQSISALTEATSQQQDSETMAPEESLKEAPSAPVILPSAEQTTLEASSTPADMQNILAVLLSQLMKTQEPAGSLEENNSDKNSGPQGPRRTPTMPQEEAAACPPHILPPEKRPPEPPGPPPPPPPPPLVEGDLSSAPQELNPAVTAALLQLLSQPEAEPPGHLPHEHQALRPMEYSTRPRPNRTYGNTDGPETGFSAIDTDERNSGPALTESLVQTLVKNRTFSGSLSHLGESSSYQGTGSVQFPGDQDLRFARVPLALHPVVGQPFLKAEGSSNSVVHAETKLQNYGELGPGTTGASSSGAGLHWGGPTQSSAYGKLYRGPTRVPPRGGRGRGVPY
T2 sequence (O75909 whole entry partner): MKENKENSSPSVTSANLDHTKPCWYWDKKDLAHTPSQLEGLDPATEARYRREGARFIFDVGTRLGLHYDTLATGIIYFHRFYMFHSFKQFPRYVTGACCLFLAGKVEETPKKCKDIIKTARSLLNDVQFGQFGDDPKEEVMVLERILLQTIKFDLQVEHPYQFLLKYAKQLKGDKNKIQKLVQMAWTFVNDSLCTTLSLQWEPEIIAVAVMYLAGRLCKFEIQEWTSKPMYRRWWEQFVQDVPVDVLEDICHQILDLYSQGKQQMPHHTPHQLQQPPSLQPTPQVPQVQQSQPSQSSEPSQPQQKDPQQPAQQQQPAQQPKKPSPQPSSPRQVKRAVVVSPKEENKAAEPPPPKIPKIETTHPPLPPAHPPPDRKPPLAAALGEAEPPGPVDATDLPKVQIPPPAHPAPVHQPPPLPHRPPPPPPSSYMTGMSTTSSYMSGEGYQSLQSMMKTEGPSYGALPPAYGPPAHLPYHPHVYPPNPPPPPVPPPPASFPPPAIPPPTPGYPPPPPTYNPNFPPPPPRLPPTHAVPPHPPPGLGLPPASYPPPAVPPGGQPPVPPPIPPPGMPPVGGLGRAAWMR

IC50 [1] | IC50 (CDK9/CycT1) | DC50 [2] | (IC50 CDK12 high ATP) to (Degradation DC50 CDK12) ratio [2] | SMILES
49.5 nM | 9.38 µM | 5.15 nM | 129 | C[C@@H]1CN(c2nc(NCc3nc4ccccc4[nH]3)n3ncc(Br)c3n2)C[C@H](C)O1 [Example 73, N-[(1H-benzimidazol-2-yl)methyl]-8-bromo-2-[(2R,6S)-2,6-dimethylmorpholin-4-yl]pyrazolo[1,5-a][1,3,5]triazin-4-amine]
10.7 nM | 5.13 µM | 2.16 nM | 1196 | COc1ccccc1-c1cnc(CNc2nc(N3CCOCC3)nc3c(Br)cnn23)[nH]1 [Example 87, 8-bromo-N-{[5-(2-methoxyphenyl)-1H-imidazol-2-yl]methyl}-2-(morpholin-4-yl)pyrazolo[1,5-a][1,3,5]triazin-4-amine]
27.9 nM | 3.56 µM | 12.5 nM | 440 | Brc1cnn2c(NCc3nnc(-c4ccccc4)[nH]3)nc(N3CCCC3)nc12 [Example 64, 8-bromo-N-[(5-phenyl-4H-1,2,4-triazol-3-yl)methyl]-2-(pyrrolidin-1-yl)pyrazolo[1,5-a][1,3,5]triazin-4-amine]
 | > 20 µM | 7.3 nM | 1471 | FC(F)(F)Oc1ccccc1-c1cnc(CNc2nc(N3CCOCC3)nc3c(Br)cnn23)[nH]1 [Example 89, 8-bromo-2-(morpholin-4-yl)-N-({5-[2-(trifluoromethoxy)phenyl]-1H-imidazol-2-yl}methyl)pyrazolo[1,5-a][1,3,5]triazin-4-amine]
 | > 20 µM | 57.4 nM |  | FC(F)(F)Oc1ccccc1-c1nnc(CNc2nc(N3CCOCC3)nc3c(Br)cnn23)[nH]1 [Example 74, 8-bromo-2-(morpholin-4-yl)-N-({5-[2-(trifluoromethoxy)phenyl]-4H-1,2,4-triazol-3-yl}methyl)pyrazolo[1,5-a][1,3,5]triazin-4-amine]
21.1 nM | 1.76 µM | 4.34 nM | 998 | OC[C@H]1CCCCN1c1nc(NCc2nnc(-c3ccccc3)[nH]2)n2ncc(Br)c2n1 [Example 71, [(2R)-1-(8-bromo-4-{[(5-phenyl-4H-1,2,4-triazol-3-yl)methyl]amino}pyrazolo[1,5-a][1,3,5]triazin-2-yl)piperidin-2-yl]methanol]
 | > 6.15 µM | 7.38 nM | >511 | Fc1ccccc1-c1nnc(CNc2nc(N3CCOCC3)nc3c(Br)cnn23)[nH]1 [Example 75, 8-bromo-N-{[5-(2-fluorophenyl)-4H-1,2,4-triazol-3-yl]methyl}-2-(morpholin-4-yl)pyrazolo[1,5-a][1,3,5]triazin-4-amine]
 | 6.42 µM | 16.3 nM | 84 | FC(F)(F)c1ccccc1-c1cnc(CNc2nc(N3CCOCC3)nc3c(Br)cnn23)[nH]1 [Example 88, 8-bromo-2-(morpholin-4-yl)-N-({5-[2-(trifluoromethyl)phenyl]-1H-imidazol-2-yl}methyl)pyrazolo[1,5-a][1,3,5]triazin-4-amine]
6.23 nM | > 20 µM |  |  | CN1CCN(c2nc(NCc3nc4cc(Cl)c(Cl)cc4[nH]3)n3ncc(C4CC4)c3n2)CC1 [Example 305, 8-cyclopropyl-N-[(5,6-dichloro-1H-benzimidazol-2-yl)methyl]-2-(4-methylpiperazin-1-yl)pyrazolo[1,5-a][1,3,5]triazin-4-amine]
 | 6.79 µM | 9.37 nM | 111 | FC(F)(F)c1cccc(-c2cnc(CNc3nc(N4CCOCC4)nc4c(Br)cnn34)[nH]2)c1 [Example 83, 8-bromo-2-(morpholin-4-yl)-N-({5-[3-(trifluoromethyl)phenyl]-1H-imidazol-2-yl}methyl)pyrazolo[1,5-a][1,3,5]triazin-4-amine]
22.1 nM | > 20 µM | 26.8 nM | 679 | CN1CCN(c2nc(NCc3nc4cc(C(F)(F)F)ccc4[nH]3)n3ncc(C4CC4)c3n2)CC1 [Example 313, 8-cyclopropyl-2-(4-methylpiperazin-1-yl)-N-{[5-(trifluoromethyl)-1H-benzimidazol-2-yl]methyl}pyrazolo[1,5-a][1,3,5]triazin-4-amine]
85.5 nM | > 20 µM | 42.8 nM | >133 | Fc1cccc(-c2cnn3c(NCc4nc5ccccc5[nH]4)nc(N4CCOCC4)nc23)c1 [Example 91, N-[(1H-benzimidazol-2-yl)methyl]-8-(3-fluorophenyl)-2-(morpholin-4-yl)pyrazolo[1,5-a][1,3,5]triazin-4-amine]
18.3 nM | > 10.8 µM | 5.57 nM | 1137 | Cc1ccccc1-c1cnc(CNc2nc(N3CCOCC3)nc3c(Br)cnn23)[nH]1 [Example 85, 8-bromo-N-{[5-(2-methylphenyl)-1H-imidazol-2-yl]methyl}-2-(morpholin-4-yl)pyrazolo[1,5-a][1,3,5]triazin-4-amine]
 | > 20 µM | 31.8 nM | 518 | O[C@@H]1CCN(c2nc(NCc3nc4ccccc4[nH]3)n3ncc(Br)c3n2)C1 [Example 202, (3R)-1-(4-{[(1H-benzimidazol-2-yl)methyl]amino}-8-bromopyrazolo[1,5-a][1,3,5]triazin-2-yl)pyrrolidin-3-ol]
 | 12.6 µM | 22.3 nM | 41 | FC(F)(F)Oc1cccc(-c2cnc(CNc3nc(N4CCOCC4)nc4c(Br)cnn34)[nH]2)c1 [Example 82, 8-bromo-2-(morpholin-4-yl)-N-({5-[3-(trifluoromethoxy)phenyl]-1H-imidazol-2-yl}methyl)pyrazolo[1,5-a][1,3,5]triazin-4-amine]
 | > 20 µM | 94.5 nM | >212 | CC(C)c1cnn2c(NCc3nc4ccccc4[nH]3)nc(N(C)C)nc12 [Example 3, N^4-[(1H-benzimidazol-2-yl)methyl]-N^2,N^2-dimethyl-8-(propan-2-yl)pyrazolo[1,5-a][1,3,5]triazine-2,4-diamine]
 | 0.768 µM | 5.15 nM | 141 | C[C@@H]1CN(c2nc(NCc3nnc(-c4ccccc4)[nH]3)n3ncc(Br)c3n2)C[C@H](C)O1 [Example 78, 8-bromo-2-[(2R,6S)-2,6-dimethylmorpholin-4-yl]-N-[(5-phenyl-4H-1,2,4-triazol-3-yl)methyl]pyrazolo[1,5-a][1,3,5]triazin-4-amine]
 | 5.39 µM | 5.31 nM | 144 | Clc1cccc(-c2cnc(CNc3nc(N4CCOCC4)nc4c(Br)cnn34)[nH]2)c1 [Example 81, 8-bromo-N-{[5-(3-chlorophenyl)-1H-imidazol-2-yl]methyl}-2-(morpholin-4-yl)pyrazolo[1,5-a][1,3,5]triazin-4-amine]
 | 8.59 µM | 23.3 nM | 116 | c1ccc(-c2nnc(CNc3nc(N4CCOCC4)nc4c(C5CC5)cnn34)[nH]2)cc1 [Example 93, 8-cyclopropyl-2-(morpholin-4-yl)-N-[(5-phenyl-4H-1,2,4-triazol-3-yl)methyl]pyrazolo[1,5-a][1,3,5]triazin-4-amine]
 | 7.85 µM | 12.1 nM | >440 | COC1CCN(c2nc(NCc3nnc(-c4ccccc4)[nH]3)n3ncc(Br)c3n2)CC1 [Example 76, 8-bromo-2-(4-methoxypiperidin-1-yl)-N-[(5-phenyl-4H-1,2,4-triazol-3-yl)methyl]pyrazolo[1,5-a][1,3,5]triazin-4-amine]
 | 12.9 µM | 116 nM | 87 | COC(=O)C1CCN(c2nc(NCc3nnc(-c4ccccc4)[nH]3)n3ncc(Br)c3n2)CC1 [Example 77, methyl 1-(8-bromo-4-{[(5-phenyl-4H-1,2,4-triazol-3-yl)methyl]amino}pyrazolo[1,5-a][1,3,5]triazin-2-yl)piperidine-4-carboxylate]
 | 8.35 µM | 84.5 nM | >68 | Clc1ccccc1-c1nnc(CNc2nc(N3CCOCC3)nc3c(Br)cnn23)[nH]1 [Example 69, 8-bromo-N-{[5-(2-chlorophenyl)-4H-1,2,4-triazol-3-yl]methyl}-2-(morpholin-4-yl)pyrazolo[1,5-a][1,3,5]triazin-4-amine]
 | 2.53 µM | 1.23 nM | 460 | Fc1cccc(-c2cnc(CNc3nc(N4CCOCC4)nc4c(Br)cnn34)[nH]2)c1 [Example 79, 8-bromo-N-{[5-(3-fluorophenyl)-1H-imidazol-2-yl]methyl}-2-(morpholin-4-yl)pyrazolo[1,5-a][1,3,5]triazin-4-amine]
